# Data taken from patent US6365350B1, “Method of DNA sequencing” (The Institute of Physical and Chemical Research, priority 1997, dated 2002).
# Entries after “also recorded” stand apart in the source; their conditions may differ.
# Test system: 3′-dATP
# Test: Inhibition of [α-32P]UTP incorporation by 3′-dATP in transcription reaction (relative activity for 3′-dATP)
# Type: biochemical
# Settings: relative value of inhibition degree of [α-32P]UTP incorporation by 100 μM 3′-dATP; wild type normalized to 1.000; 37° C., 60 minutes
row,Compound,Relative activity of RNA polymerase for 3′-dATP
1,F644Y/L665P: mutant T7 RNA polymerase with mutations F644Y and L665P,5.130
2,F644Y: mutant T7 RNA polymerase in which F (phenylalanine) residue 644 was replaced with Y (tyrosine),5.130
3,F646Y: mutant T7 RNA polymerase in which F646 was replaced with Y,0.459
4,F733Y: mutant T7 RNA polymerase in which F733 was replaced with Y,1.075
5,F782Y: mutant T7 RNA polymerase in which F782 was replaced with Y,1.173
6,"L665P/F667Y: mutant T7 RNA polymerase with mutations L665P and F667Y; labelled F667Y in FIGS. 29, 31, 32",4.711
7,"Wild type: wild type T7 RNA polymerase, 883 amino acid residues [reference compound]",1.000
8,"Y639F: Y639F mutant of T7 RNA polymerase, at a location corresponding to Y526 of T7 DNA polymerase, described in the literature [reference compound]",0.930

# Target: T1, T7 RNA polymerase (Gibco BRL) (Escherichia phage T7, UniProt P00573)
# T1 construct: purchased Gibco BRL
# T1 sequence (P00573 whole entry): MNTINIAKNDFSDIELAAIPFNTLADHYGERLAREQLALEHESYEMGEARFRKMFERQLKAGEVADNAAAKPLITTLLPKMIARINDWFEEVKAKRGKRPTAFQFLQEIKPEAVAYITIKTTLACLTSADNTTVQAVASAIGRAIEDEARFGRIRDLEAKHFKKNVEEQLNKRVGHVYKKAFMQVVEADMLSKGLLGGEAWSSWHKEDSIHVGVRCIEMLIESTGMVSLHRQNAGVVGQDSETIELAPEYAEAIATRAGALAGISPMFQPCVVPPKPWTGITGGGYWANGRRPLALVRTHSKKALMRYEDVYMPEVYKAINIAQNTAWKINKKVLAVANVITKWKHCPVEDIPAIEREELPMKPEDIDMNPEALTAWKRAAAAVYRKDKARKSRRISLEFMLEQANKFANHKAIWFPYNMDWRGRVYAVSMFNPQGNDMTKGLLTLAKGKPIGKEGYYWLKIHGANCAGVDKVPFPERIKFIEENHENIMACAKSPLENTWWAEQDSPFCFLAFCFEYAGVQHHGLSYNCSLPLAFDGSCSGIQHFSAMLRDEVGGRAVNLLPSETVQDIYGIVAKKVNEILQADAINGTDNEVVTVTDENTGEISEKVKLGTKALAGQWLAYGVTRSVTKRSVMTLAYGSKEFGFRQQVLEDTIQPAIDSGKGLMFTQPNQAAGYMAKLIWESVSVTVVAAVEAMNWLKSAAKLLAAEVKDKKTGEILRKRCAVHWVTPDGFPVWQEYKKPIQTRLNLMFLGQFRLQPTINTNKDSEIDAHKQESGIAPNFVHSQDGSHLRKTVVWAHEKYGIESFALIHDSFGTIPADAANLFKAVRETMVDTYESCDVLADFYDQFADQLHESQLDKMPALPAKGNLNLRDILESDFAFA
# Test: Examination of 3′-deoxyterminators, termination pattern (Reference Example 8)
# Type: biochemical
# Settings: terminator 10 μM, 37° C., 30 minutes, FIGS. 42A and 42B
# Method: PCR was performed by using the following materials (96° C. for one minute, 55° C. for 30 seconds, and 72° C. for one minute for one cycle, and 96° C. for 30 seconds, 55° C. for 30 seconds, 72° C. for one minute for 24 cycles), and the resulting PCR product (amplified DNA fragment of human thyroid stimulating hormone (TSH) β-subunit) was used as a template DNA.
# Each material in a predetermined amount was added to a sample tube, filled up to a total volume of 10 μl with EXTaq buffer (Takara Shuzo), and used as a PCR mixture.
# The template DNA (10 ng) was added to a sample tube containing each of the terminators, guanosine-5′-triphosphate (rGTP), uridine-5′-triphosphate (rUTP), adenosine-5′-triphosphate (rATP), and cytidine-5′-triphosphate (rCTP), MgCl2, spermidine-(HCl)3, dithiothreitol (DTT), Tris/HCl (pH 7.5), yeast inorganic pyrophosphatase (PPase) and T7 RNA polymerase in such amounts as their final concentrations should be as follows, filled up to a total amount of 10 μl with distilled water, and used as a sample.
# After 30 minutes incubation of the sample at 37° C., the terminators not incorporated were removed by gel filtration using a Sephadex G25 column (Pharmacia), and the precipitates were collected by centrifugal separation. […] After cooling, 2 μl of the solution was applied to 4% sequencing gel, and electrophoresed on ABI377 fluorescence automatic sequencer (ABI). […]
row,Compound,termination pattern / incorporation efficiency
1,TMR-labeled 3′-deoxyuridine-5′-triphosphate [TMR-3′dUTP(n4)],difference is not recognized
2,TMR-labeled 3′-deoxyuridine-5′-triphosphate [TMR-Allyl-3′dUTP(n4)],incorporated as efficiently as TMR-3′dUTP(n4)

# Test system: 3′-dATP, 3′-dGTP, 3′-dCTP, 3′-dUTP and derivatives thereof
# Test: not given
# Settings: not given
row,Compound,bias of incorporation observed in the wild type
1,F644Y: mutant T7 RNA polymerase in which F (phenylalanine) residue 644 was replaced with Y (tyrosine),markedly reduced
2,"L665P/F667Y: mutant T7 RNA polymerase with mutations L665P and F667Y; labelled F667Y in FIGS. 29, 31, 32",markedly reduced

# Same assay, conditions: compared with wild type T7 RNA polymerase
row,Compound,"ability for incorporating 3′-dATP, 3′-dGTP, 3′-dCTP, 3′-dUTP and derivatives thereof"
1,F644Y/L665P: mutant T7 RNA polymerase with mutations F644Y and L665P,marked improvement; also recorded: comparable to that of the F644Y mutant
2,F644Y: mutant T7 RNA polymerase in which F (phenylalanine) residue 644 was replaced with Y (tyrosine),marked improvement; also recorded: markedly improved ability
3,F646Y: mutant T7 RNA polymerase in which F646 was replaced with Y,no improvement
4,F733Y: mutant T7 RNA polymerase in which F733 was replaced with Y,slightly improved ability
5,F782Y: mutant T7 RNA polymerase in which F782 was replaced with Y,slightly improved ability
6,"L665P/F667Y: mutant T7 RNA polymerase with mutations L665P and F667Y; labelled F667Y in FIGS. 29, 31, 32",marked improvement; also recorded: markedly improved ability
7,"Y639F: Y639F mutant of T7 RNA polymerase, at a location corresponding to Y526 of T7 DNA polymerase, described in the literature [reference compound]",no improvement

# Test system: plasmid vector pBluescriptKS(+) having T7 promoter
# Test: Sequencing reaction by the dye terminator method, n=1 terminators (Example 2)
# Settings: four dye terminators n=1, 25 units polymerase, 37° C., 1 hour
# Method: Sequencing reaction by the dye terminator method was performed utilizing the purified mutant T7 RNA polymerases F644Y and L665P/F667Y, and the wild type T7 RNA polymerase as follows for comparison.
# More specifically, the reaction was performed in a total reaction volume of 10 μl containing a plasmid vector pBluescriptKS(+) having T7 promoter linealized by the reaction with a restriction endonuclease PvuII or ScaI as a template, 250 μM of R6G-3′-dATP(n=1), 25 μM of R110-3′-dGTP(n=1), 150 μM of XR-3′-dCTP(n=1), 50 μM of TMR-3′-dUTP(n=1), which were the dye terminators synthesized in the above Synthesis Examples 49, 52, 46 and 43 respectively, as derivatives of 3′-dNTP, 500 μM of GTP and UTP, 250 μM of ATP and CTP, 8 mM of MgCl2, 2 mM of spermidine-(HCl)3, 5 mM of DTT, 40 mM of Tris/HCl pH 8.0 (BRL, Gibco) and 25 units of wild type T7 RNA polymerase (BRL, Gibco or Nippon Gene) or the mutant T7 RNA polymerase F644Y at 37° C. for 1 hour. Then, to remove the unreacted dye terminators remained in the reaction product, the transcription product was purified by gel filtration using a Sephadex G-50 column (Pharmacia Biotech), and the purification product was evaporated to dryness using a centrifugal evaporator.
# The dried reaction product was dissolved in 6 μl of formamide/EDTA/Blue dextran loading buffer according to the instruction manual Ver.1.0 of ABI PRISM 377 DNA Sequencing System available from Perkin-Elmer Japan, and 2 μl of the solution was analyzed by ABI 377 DNA Sequencer and an analysis program using denatured gel for sequencing analysis which contained 6 M urea/4% Long Ranger™ acrylamide solution (FMC).
Compound,peak intensity in comparison with the wild type T7 RNA polymerase,sequence reading
F644Y: mutant T7 RNA polymerase in which F (phenylalanine) residue 644 was replaced with Y (tyrosine),higher peak intensity with less fluctuation,sequence reading was possible
"L665P/F667Y: mutant T7 RNA polymerase with mutations L665P and F667Y; labelled F667Y in FIGS. 29, 31, 32",higher peak intensity with less fluctuation,sequence reading was possible
"Wild type: wild type T7 RNA polymerase, 883 amino acid residues [reference compound]",–,almost impossible; also recorded: sequencing was not performed correctly

# Test system: XR-3′dCTP(n=1)
# Test: In vitro transcription with dye terminator XR-3′dCTP(n=1), sequence ladder (Example 1)
# Type: biochemical
# Settings: 150 μM XR-3′dCTP(n=1), 25 units polymerase, 37° C., 1 hour
# Method: In vitro transcription reaction was performed by, for example, a partially modified version of the method of Melton, D. A., [Nucleic Acids Res., 12:7035-7056 (1984)].
Compound,sequence ladder length compared with that afforded by the wild type T7 RNA polymerase [times],transcription product length confirmed
F644Y: mutant T7 RNA polymerase in which F (phenylalanine) residue 644 was replaced with Y (tyrosine),3,about 700 bases

# Same assay, conditions: peak intensities of sequence ladder vs wild type, FIGS. 30 and 31
row,Compound,incorporation efficiency for 3′-dCTP derivatives
1,F644Y: mutant T7 RNA polymerase in which F (phenylalanine) residue 644 was replaced with Y (tyrosine),improved the incorporation efficiency
2,"L665P/F667Y: mutant T7 RNA polymerase with mutations L665P and F667Y; labelled F667Y in FIGS. 29, 31, 32",improved the incorporation efficiency

# Target: T7 RNA polymerase (Escherichia phage T7, UniProt P00573)
# Sequence (P00573 whole entry): as above
# Test: Incorporation rate of 3′-dNTP measured with radioactive [α-32P]3′-dNTPs
# Type: biochemical
# Settings: not given
# Method: Further, incorporation rate of 3′-deoxyribonucleotides is different depending on the kind of RNA polymerase, and this should be considered for the selection of the combination. The incorporation rate of 3′-dNTP by T7 RNA polymerase was measured by using radioactive [α-^32p]3′-dNTPs.
row,Compound,order of incorporation rate of 3′-dNTP by T7 RNA polymerase
1,Nc1ncnc2c1ncn2[C@@H]1O[C@H](COP(=O)(O)OP(=O)(O)OP(=O)(O)O)C[C@H]1O [3′-dATP],"3′-dGTP>3′-dATP, 3′-dUTP>3′-dCTP"
2,Nc1ccn([C@@H]2O[C@H](COP(=O)(O)OP(=O)(O)OP(=O)(O)O)C[C@H]2O)c(=O)n1 [3′-dCTP],"3′-dGTP>3′-dATP, 3′-dUTP>3′-dCTP"
3,Nc1nc2c(ncn2[C@@H]2O[C@H](COP(=O)(O)OP(=O)(O)OP(=O)(O)O)C[C@H]2O)c(=O)[nH]1 [3′-dGTP],"3′-dGTP>3′-dATP, 3′-dUTP>3′-dCTP"
4,O=c1ccn([C@@H]2O[C@H](COP(=O)(O)OP(=O)(O)OP(=O)(O)O)C[C@H]2O)c(=O)[nH]1 [3′-dUTP],"3′-dGTP>3′-dATP, 3′-dUTP>3′-dCTP"

# Test system: DNA containing T7 promoter
# Test: not given
# Settings: in vitro, compared with wild type T7 RNA polymerase
# Method: Subsequent steps for purification of enzyme should be performed at a temperature lower than room temperature, preferably 0-5° C. unless otherwise indicated. The E. coli cells were washed with 10 times relative to the cell weight of a washing buffer (20 mM Tris-HCl, pH 8.1, 130 mM NaCl, 2 mM EDTANa2 at 25° C.), centrifuged again (5,000×g, 4° C., 10 minutes), suspended in 10 times in volume of a sonication buffer [50 mM Tris-HCl, pH 8.1, 100 mM NaCl, 0.1 mM EDTANa2, 5 mM dithiothreitol (DTT), 0.1 mM benzamidine, 30 μg/ml phenylmethylsulfonyl fluoride (PMSF), 10 μg/ml bacitracin], and sonicated by using Sonifier 450 (Branson) at 80W for more than 15 minutes to destroy the cells and reduce the viscosity of the cells. Then, the cell suspension is centrifuged at 12,000×g and 4° C. for ten minutes to remove the cell debris. 10% streptomycin sulfate was slowly added dropwise to the resulting supernatant to a final concentration of 2.0% with stirring, and stirring was further continued for 30 minutes. The supernatant was centrifuged at 12,000×g and 4° C. for ten minutes to remove precipitates, and slowly added with ammonium sulfate powder with stirring to form precipitates. In this case, precipitates were first collected by 30% saturation of ammonium sulfate (30% ammonium sulfate precipitation), and the resulting supernatant was further added with ammonium sulfate to 60% saturation with stirring to form precipitates again (30-60% ammonium sulfate precipitation). The supernatant was added again with ammonium sulfate powder to 90% ammonium sulfate saturation, and stirred at 4° C. for 1 hour, and the precipitates were collected by centrifugation. […] The.30′60% ammonium sulfate fraction was suspended in a small amount of column buffer (20 mM KPO4, pH 7.7, 100 mM NaCl, 1 mM DTT, 30 μg/ml PMSF), and desalted by dialysis against 500 ml of the same buffer for 16hours. The dialysate was applied on a heparin-Sepharose column of 5 ml volume (Pharmacia Biotech). Subsequently, the column was washed with the same buffer until any material absorbing ultraviolet ray at 280 nm disappeared, and eluted with a linear gradient of 0.1 M to 0.64 M NaCl in the same buffer of about 40 times volume of the column volume. The eluent was collected in test tubes as fractions of a suitable volume, and immediately subjected to SDS-acrylamide gel electrophoresis for protein analysis to identify fractions containing proteins around a molecular weight considered to be of the objective T7 RNA polymerase. […] The fractions containing the protein were collected, and desalted by dialysis against about 1 liter of the column buffer (20 mM KPO4, pH 7.7, 100 mM NaCl, 1 mM DTT, 30 μg/ml PMSF) for 16 hours. The fractions desalted by dialysis were applied to a Q-Sepharose column (Pharmacia Biotech) of 5 ml volume that preliminarily equilibrated with the same buffer, and the column was washed with the same buffer until any material absorbing ultraviolet ray at 280 nm disappeared, and eluted with a linear gradient of 0.1 M to 0.64 M NaCl in the same buffer of about 40 times volume of the column volume. The eluent was collected in test tubes as fractions of a suitable volume, and immediately subjected to SDS-acrylamide gel electrophoresis for protein analysis to identify fractions containing proteins around a molecular weight considered to be of the objective T7 RNA polymerase. […] The fractions containing the protein were collected, dialyzed against 500 ml of storage buffer (50% glycerol, 20 mM KPO4, pH 7.7, 100 mM NaCl, 1 mM DTT, 30 μg/ml PMSF) for 16 hours, and stored at −20° C. until use. In vitro RNA synthesis activity and activity of the contaminated ribonuclease of this sample were examined.
row,Compound,RNA synthesis activity
1,F644Y/L665P: mutant T7 RNA polymerase with mutations F644Y and L665P,maintained sufficient RNA synthesis activity
2,F644Y: mutant T7 RNA polymerase in which F (phenylalanine) residue 644 was replaced with Y (tyrosine),maintained sufficient RNA synthesis activity
3,F646Y: mutant T7 RNA polymerase in which F646 was replaced with Y,maintained RNA synthesis activity
4,F733Y: mutant T7 RNA polymerase in which F733 was replaced with Y,slightly decreased RNA synthesis activity
5,F782Y: mutant T7 RNA polymerase in which F782 was replaced with Y,maintained RNA synthesis activity
6,"L665P/F667Y: mutant T7 RNA polymerase with mutations L665P and F667Y; labelled F667Y in FIGS. 29, 31, 32",maintained sufficient RNA synthesis activity
7,"Wild type: wild type T7 RNA polymerase, 883 amino acid residues [reference compound]",sufficient RNA synthesis activity
8,"Y639F: Y639F mutant of T7 RNA polymerase, at a location corresponding to Y526 of T7 DNA polymerase, described in the literature [reference compound]",maintained RNA synthesis activity
